Assay results taken from ChEMBL document CHEMBL4665798, “Novel Human Urate Transporter 1 Inhibitors as Hypouricemic Drug Candidates with Favorable Druggability” (J Med Chem, 2020).

Columns and labels:
[1] = Sub-acute toxicity in Kunming mouse assessed as hepatocellular condensation of liver at 50 mg/kg, po administered as single dose every other day for 14 days by H and E staining based assay; type: organism-based; conditions: in vivo, 336 h, time 14 day
[2] = Sub-acute toxicity in Kunming mouse assessed as ballooning degeneration of liver at 50 mg/kg, po administered as single dose every other day for 14 days by H and E staining based assay; type: organism-based; conditions: in vivo, 336 h, time 14 day
[3] = Sub-acute toxicity in Kunming mouse assessed as hydropic degeneration of hepatocytes at 50 mg/kg, po administered as single dose every other day for 14 days by H and E staining based assay; type: organism-based; conditions: in vivo, 336 h, time 14 day
[4] = Sub-acute toxicity in male Kunming mouse assessed as increase in body weight at 50 mg/kg, po administered once every second day for 14 days; type: organism-based; conditions: in vivo, 336 h, time 14 day
[5] = Acute toxicity in female Kunming mouse assessed as change in body weight at 500 mg/kg, ig measured for 1 week; type: organism-based; conditions: in vivo, po, 168 h, time 1 weeks
[6] = Acute toxicity in Kunming mouse assessed as induction of abnormal behaviors by measuring lethargy at 500 mg/kg, ig; type: organism-based; conditions: in vivo, po
[7] = Acute toxicity in male Kunming mouse assessed as change in body weight at 500 mg/kg, ig measured for 1 week; type: organism-based; conditions: in vivo, po, 168 h, time 1 weeks
[8] = Acute toxicity in Kunming mouse assessed as induction of abnormal behaviors by measuring clonic convulsion at 500 mg/kg, ig; type: organism-based; conditions: in vivo, po
[9] = Acute toxicity in Kunming mouse assessed as induction of abnormal behaviors by measuring anorexia at 500 mg/kg, ig; type: organism-based; conditions: in vivo, po
[10] = Acute toxicity in Kunming mouse assessed as death at 500 mg/kg, ig measured for 1 week; type: organism-based; conditions: in vivo, po, 168 h, time 1 weeks
[11] = Clearance in Sprague-Dawley rat at 1 mg/kg, iv by LC-MS analysis; type: ADME, organism-based; conditions: in vivo
[12] = Half-life in Sprague-Dawley rat at 1 mg/kg, iv by LC-MS analysis; type: ADME, organism-based; conditions: in vivo
[13] = MRT (0 to infinity) in Sprague-Dawley rat at 1 mg/kg, iv by LC-MS analysis; type: ADME, organism-based; conditions: in vivo
[14] = AUC (0 to infinity) in Sprague-Dawley rat at 1 mg/kg, iv by LC-MS analysis; type: ADME, organism-based; design: time infinity, route intravenous, dose 1 mg/kg; conditions: in vivo
[15] = AUC (0 to t) in Sprague-Dawley rat at 1 mg/kg, iv by LC-MS analysis; type: ADME, organism-based; design: dose 1 mg/kg; conditions: in vivo
Cytochrome P450 3A4 = Cytochrome P450 3A4 (Homo sapiens, UniProt P08684); experiment: Inhibition of CYP3A4 in human liver microsome using midazolam as substrate measured after 20 mins in presence of NADPH by LC-MS/MS analysis
Chain of Cytochrome P450 3A4 (P08684 whole entry): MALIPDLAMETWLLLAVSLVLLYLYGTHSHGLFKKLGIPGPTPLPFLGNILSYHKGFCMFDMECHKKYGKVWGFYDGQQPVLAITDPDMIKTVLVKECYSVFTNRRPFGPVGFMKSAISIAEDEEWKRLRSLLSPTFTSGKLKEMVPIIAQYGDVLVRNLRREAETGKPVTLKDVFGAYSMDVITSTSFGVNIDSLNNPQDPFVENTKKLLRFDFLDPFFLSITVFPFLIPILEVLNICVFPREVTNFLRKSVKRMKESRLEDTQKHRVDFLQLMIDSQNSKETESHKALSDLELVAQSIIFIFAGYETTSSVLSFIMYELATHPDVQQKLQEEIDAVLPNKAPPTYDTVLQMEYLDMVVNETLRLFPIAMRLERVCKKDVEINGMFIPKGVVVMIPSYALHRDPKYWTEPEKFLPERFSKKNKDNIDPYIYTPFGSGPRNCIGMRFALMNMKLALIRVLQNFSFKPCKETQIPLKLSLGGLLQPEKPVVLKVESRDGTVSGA

Cytochrome P450 2D6 = Cytochrome P450 2D6 (Homo sapiens, UniProt P10635); experiment: Inhibition of CYP2D6 in human liver microsome using probe substrate measured after 20 mins in presence of NADPH by LC-MS/MS analysis
Chain of Cytochrome P450 2D6 (P10635 whole entry): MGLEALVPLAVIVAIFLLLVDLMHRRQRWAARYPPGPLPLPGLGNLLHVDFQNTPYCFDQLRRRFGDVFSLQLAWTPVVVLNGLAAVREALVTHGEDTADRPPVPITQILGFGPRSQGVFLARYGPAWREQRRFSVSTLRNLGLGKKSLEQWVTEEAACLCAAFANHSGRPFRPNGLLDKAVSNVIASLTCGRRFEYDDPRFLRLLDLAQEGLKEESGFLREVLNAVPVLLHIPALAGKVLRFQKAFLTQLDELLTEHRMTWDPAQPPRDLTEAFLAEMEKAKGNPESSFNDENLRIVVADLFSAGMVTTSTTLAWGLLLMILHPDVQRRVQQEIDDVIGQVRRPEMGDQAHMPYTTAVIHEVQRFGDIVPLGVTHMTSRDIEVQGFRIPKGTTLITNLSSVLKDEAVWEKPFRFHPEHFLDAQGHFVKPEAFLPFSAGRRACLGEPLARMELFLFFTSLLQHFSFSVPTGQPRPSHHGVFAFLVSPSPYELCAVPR

Cytochrome P450 2C19 = Cytochrome P450 2C19 (Homo sapiens, UniProt P33261); experiment: Inhibition of CYP2C19 in human liver microsome using probe substrate measured after 20 mins in presence of NADPH by LC-MS/MS analysis
Chain of Cytochrome P450 2C19 (P33261 whole entry): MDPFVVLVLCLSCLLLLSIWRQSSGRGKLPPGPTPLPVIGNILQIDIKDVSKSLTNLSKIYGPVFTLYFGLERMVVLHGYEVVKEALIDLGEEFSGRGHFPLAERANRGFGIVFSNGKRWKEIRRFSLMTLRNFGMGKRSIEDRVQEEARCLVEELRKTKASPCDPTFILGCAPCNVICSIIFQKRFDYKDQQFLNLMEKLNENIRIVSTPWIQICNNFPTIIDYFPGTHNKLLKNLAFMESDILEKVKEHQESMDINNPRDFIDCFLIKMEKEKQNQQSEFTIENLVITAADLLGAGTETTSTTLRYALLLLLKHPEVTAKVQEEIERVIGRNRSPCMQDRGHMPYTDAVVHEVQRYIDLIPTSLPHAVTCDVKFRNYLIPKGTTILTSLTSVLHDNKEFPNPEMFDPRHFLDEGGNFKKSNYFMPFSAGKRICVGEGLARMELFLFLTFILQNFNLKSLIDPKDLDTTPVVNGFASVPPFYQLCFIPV

Cytochrome P450 2C9 = Cytochrome P450 2C9 (Homo sapiens, UniProt P11712); experiment: Inhibition of CYP2C9 in human liver microsome using probe substrate measured after 20 mins in presence of NADPH by LC-MS/MS analysis
Chain of Cytochrome P450 2C9 (P11712 whole entry): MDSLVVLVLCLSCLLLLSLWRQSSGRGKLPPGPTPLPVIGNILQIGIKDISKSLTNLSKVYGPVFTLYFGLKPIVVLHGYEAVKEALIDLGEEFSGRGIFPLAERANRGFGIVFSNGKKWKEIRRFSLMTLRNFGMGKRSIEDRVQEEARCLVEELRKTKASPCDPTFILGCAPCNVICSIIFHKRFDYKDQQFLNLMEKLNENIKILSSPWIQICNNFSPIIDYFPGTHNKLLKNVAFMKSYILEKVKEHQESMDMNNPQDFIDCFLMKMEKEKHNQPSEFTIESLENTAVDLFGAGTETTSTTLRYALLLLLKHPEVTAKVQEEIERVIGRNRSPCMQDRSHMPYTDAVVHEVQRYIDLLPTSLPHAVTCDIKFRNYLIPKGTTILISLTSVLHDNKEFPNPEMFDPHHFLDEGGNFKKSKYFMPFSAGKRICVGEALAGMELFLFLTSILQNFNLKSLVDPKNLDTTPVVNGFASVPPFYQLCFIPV

Cytochrome P450 1A2 = molecular target: T1, Cytochrome P450 1A2 (Homo sapiens, UniProt P05177); experiment: Inhibition of CYP1A2 in human liver microsome using probe substrate measured after 20 mins in presence of NADPH by LC-MS/MS analysis
T1 sequence (P05177 whole entry): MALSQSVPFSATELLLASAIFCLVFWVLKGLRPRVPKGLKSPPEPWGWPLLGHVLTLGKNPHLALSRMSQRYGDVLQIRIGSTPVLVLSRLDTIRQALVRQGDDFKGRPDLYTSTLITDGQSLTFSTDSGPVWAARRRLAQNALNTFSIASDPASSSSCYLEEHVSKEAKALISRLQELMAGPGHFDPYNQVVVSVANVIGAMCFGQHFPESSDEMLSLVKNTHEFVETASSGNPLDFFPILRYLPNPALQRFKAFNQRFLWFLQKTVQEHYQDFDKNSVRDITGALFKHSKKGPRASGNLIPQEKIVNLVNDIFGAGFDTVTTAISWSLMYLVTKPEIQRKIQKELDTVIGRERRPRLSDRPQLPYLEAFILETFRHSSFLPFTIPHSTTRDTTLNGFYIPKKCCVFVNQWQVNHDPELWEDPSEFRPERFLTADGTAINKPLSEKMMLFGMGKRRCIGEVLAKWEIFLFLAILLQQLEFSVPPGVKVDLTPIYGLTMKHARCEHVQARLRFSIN

[16] = molecular target: T2, Solute carrier family 22 member 12 (Homo sapiens, UniProt Q96S37); experiment: Inhibition of human URAT1 expressed in HEK293T cells assessed as reduction in [14C]uric acid uptake preincubated for 15 mins followed by [14C]uric acid addition by liquid scintillation counting method; type: cell-based
T2 sequence (Q96S37 whole entry): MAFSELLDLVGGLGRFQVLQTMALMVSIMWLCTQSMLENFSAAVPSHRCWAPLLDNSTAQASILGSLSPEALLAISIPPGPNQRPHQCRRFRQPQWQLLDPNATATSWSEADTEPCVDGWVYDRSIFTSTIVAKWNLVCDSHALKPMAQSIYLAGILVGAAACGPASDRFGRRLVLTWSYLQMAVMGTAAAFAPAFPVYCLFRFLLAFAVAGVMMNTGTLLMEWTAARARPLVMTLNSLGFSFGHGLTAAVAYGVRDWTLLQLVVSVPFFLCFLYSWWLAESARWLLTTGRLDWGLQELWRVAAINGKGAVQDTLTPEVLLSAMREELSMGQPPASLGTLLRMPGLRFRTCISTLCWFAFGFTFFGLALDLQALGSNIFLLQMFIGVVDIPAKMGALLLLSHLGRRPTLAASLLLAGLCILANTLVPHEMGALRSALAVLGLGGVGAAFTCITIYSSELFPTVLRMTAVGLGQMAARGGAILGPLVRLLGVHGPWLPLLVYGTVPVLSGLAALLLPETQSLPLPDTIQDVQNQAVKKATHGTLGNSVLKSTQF

[17] = Sub-acute toxicity in Kunming mouse assessed as death at 50 mg/kg, po administered once every second day for 14 days; type: organism-based; conditions: in vivo, 336 h, time 14 day
[18] = Sub-acute toxicity in Kunming mouse assessed as lethargy at 50 mg/kg, po administered once every second day for 14 days; type: organism-based; conditions: in vivo, 336 h, time 14 day
[19] = Sub-acute toxicity in Kunming mouse assessed as clonic convulsion at 50 mg/kg, po administered once every second day for 14 days; type: organism-based; conditions: in vivo, 336 h, time 14 day
[20] = Sub-acute toxicity in Kunming mouse assessed as anorexia at 50 mg/kg, po administered once every second day for 14 days; type: organism-based; conditions: in vivo, 336 h, time 14 day
[21] = Sub-acute toxicity in Kunming mouse assessed as appearance of ruffled fur at 50 mg/kg, po administered once every second day for 14 days; type: organism-based; conditions: in vivo, 336 h, time 14 day

For `CC(Sc1nc2ncccc2n1-c1ccc(C2CC2)c2ccccc12)C(=O)O` (racemic), the Activity [1] was “Non-Toxic”, the Activity [2] was “Non-Toxic” and the Activity [3] was “Non-Toxic”. For the same compound, the Activity [4] was “Non-Toxic”, the Activity [5] was “Non-Toxic” and the Activity [6] was “Non-Toxic”. For the same compound, the Activity [7] was “Non-Toxic”, the Activity [8] was “Non-Toxic” and the Activity [9] was “Non-Toxic”. The Activity [10] was “Non-Toxic”, the clearance [11] was 4.4 mL/min/kg and the half-life [12] was 3.1 h. The MRT inf [13] was 2.7 h, the AUC(0-inf) [14] was 3910 ng·h/mL and the AUC(0-t) [15] was 3480 ng·h/mL. The IC50 (Cytochrome P450 3A4) was > 50 µM, the IC50 (Cytochrome P450 2D6) was > 50 µM and the IC50 (Cytochrome P450 2C19) was 48.7 µM. The IC50 (Cytochrome P450 2C9) was 20 µM, the IC50 (Cytochrome P450 1A2) was > 50 µM and the IC50 [16] was 1.57 µM. For the same compound, the Activity [17] was “Non-Toxic”, the Activity [18] was “Non-Toxic” and the Activity [19] was “Non-Toxic”. The Activity [20] was “Non-Toxic” and the Activity [21] was “Non-Toxic”.
In the case of `O=C(CSc1nnc(Br)n1-c1ccc(C2CC2)c2ccccc12)NS(=O)(=O)c1ccc(Br)cc1`, the Activity [1] is reported as “Non-Toxic”, the Activity [2] is reported as “Non-Toxic” and the Activity [3] is reported as “Non-Toxic”. The Activity [4] was “Non-Toxic”, the Activity [5] was “Non-Toxic” and the Activity [6] was “Non-Toxic”. For the same compound, the Activity [7] was “Non-Toxic”, the Activity [8] was “Non-Toxic” and the Activity [9] was “Non-Toxic”. For the same compound, the Activity [10] was “Non-Toxic”, the clearance [11] was 5.46 mL/min/kg and the half-life [12] was 5 h. For the same compound, the MRT inf [13] was 4.3 h, the AUC(0-inf) [14] was 3090 ng·h/mL and the AUC(0-t) [15] was 3030 ng·h/mL. The IC50 (Cytochrome P450 3A4) was > 50 µM, the IC50 (Cytochrome P450 2D6) was > 50 µM and the IC50 (Cytochrome P450 2C19) was 20.6 µM. The IC50 (Cytochrome P450 2C9) was 0.636 µM, the IC50 (Cytochrome P450 1A2) was > 50 µM and the IC50 [16] was 4.17 µM. For the same compound, the Activity [17] was “Non-Toxic”, the Activity [18] was “Non-Toxic” and the Activity [19] was “Non-Toxic”. For the same compound, the Activity [20] was “Non-Toxic” and the Activity [21] was “Non-Toxic”.
